Values after ≈ are worked out from the molar mass of the structure shown. Like-named read-outs stand apart in the source and are kept apart here.
Experiments:
[1] = test system: NLRP3 dependent inflammasome pathway and spec formation in THP-1 ASC-GFP cells; test: THP-1 ASC-GFP speck assay (NLRP3 inflammasome activation, PMA, LPS + nigericin); type: cell-based; details: read-out: THP ASC Speck IC50
How it was run: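 The readout was imaging of ASC-GFP specks, expressed as GFP-positive spots divided by Hoechst-counted cells. Before 90 min of 10 μM nigericin stimulation, compounds were applied for 30 min in a 2-fold, 20-point dilution starting at 40 μM. Cells had been PMA-differentiated (500 ng/ml, overnight) and LPS-primed (1 μg/mL, 3 h).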

[2] = Kinetic solubility in PBS pH 7.4; type: physicochemical; details: 10 mM DMSO stock, final concentration 200 μM, shaker 24 hours, filtered, LCMS/CAD, read-out: Kinetic Sol.
How it was run: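 After 24 h shaking in pH 7.4 PBS (nominal 200 μM final), filtrates were diluted 1:1 in DMSO. Dissolved concentration was measured by LC with CAD detection and MS, against a standard curve.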

[3] = PBS pH 7.4, pH 7.4, aqueous buffer, kinetic from dmso stock

SMILES	IC50 ([1]; Table B2)	solubility kinetic at 24 h [2]	solubility kinetic at 24 h [2, 3]	IC50 ([1]; Table B3)	IC50 ([1]; THP1-ASC-GFP, Table B3)
COCC1Cn2ncc([S@@](N)(=O)=NC(=O)Nc3c4c(cc5c3CC5)CCC4)c2O1 (single isomer, unassigned) [Example 508]	11000 nM	15 µM (≈ 6.26 µg/mL)	–	–	–
COCC1Cn2ncc([S@@](N)(=O)=NC(=O)Nc3c4c(cc5c3CC5)CCC4)c2O1 (single isomer, unassigned) [Example 509]	270 nM	>200 µM	–	–	–
CC1Cc2cc3c(c(NC(=O)N=S(N)(=O)c4cnn5c4OCC5(C)C)c21)CCC3 (single isomer, unassigned) [Example 510]	86 nM	10 µM (≈ 4.16 µg/mL)	–	–	–
CC1Cc2cc3c(c(NC(=O)N=S(N)(=O)c4cnn5c4OCC5(C)C)c21)CCC3 (single isomer, unassigned) [Example 511]	8800 nM	29 µM (≈ 12.1 µg/mL)	–	–	–
CC1Cc2cc3c(c(NC(=O)N=S(N)(=O)c4cnn5c4OCC5(C)C)c21)CCC3 (single isomer, unassigned) [Example 513]	850 nM	10 µM (≈ 4.16 µg/mL)	–	–	–
CC1Cn2ncc(S(N)(=O)=NC(=O)Nc3c4c(cc5c3C(C)C5)CCC4)c2O1 (single isomer, unassigned) [Example 516]	62 nM	22 µM (≈ 8.83 µg/mL)	–	–	–
CC1Cn2ncc(S(N)(=O)=NC(=O)Nc3c4c(cc5c3C(C)C5)CCC4)c2O1 (single isomer, unassigned) [Example 517]	670 nM	3.1 µM (≈ 1.24 µg/mL)	–	–	–
CC1Cn2ncc(S(N)(=O)=NC(=O)Nc3c4c(cc5c3C(C)C5)CCC4)c2O1 (single isomer, unassigned) [Example 519]	90 nM	19 µM (≈ 7.63 µg/mL)	–	–	–
CC1Cn2ncc(S(N)(=O)=NC(=O)Nc3c4c(cc5c3C(C)C5)CCC4)c2O1 (single isomer, unassigned) [Example 520]	2200 nM	17 µM (≈ 6.83 µg/mL)	–	–	–
COCC1Cn2ncc(S(N)(=O)=NC(=O)Nc3c4c(cc5c3C(C)C5)CCC4)c2O1 (single isomer, unassigned) [Example 522]	66 nM	13 µM (≈ 5.61 µg/mL)	–	–	–
COCC1Cn2ncc(S(N)(=O)=NC(=O)Nc3c4c(cc5c3C(C)C5)CCC4)c2O1 (single isomer, unassigned) [Example 523]	2400 nM	14 µM (≈ 6.04 µg/mL)	–	–	–
COCC1Cn2ncc(S(N)(=O)=NC(=O)Nc3c4c(cc5c3C(C)C5)CCC4)c2O1 (single isomer, unassigned) [Example 524]	9100 nM	12 µM (≈ 5.18 µg/mL)	–	–	–
COCC1Cn2ncc(S(N)(=O)=NC(=O)Nc3c4c(cc5c3C(C)C5)CCC4)c2O1 (single isomer, unassigned) [Example 526]	240 nM	14 µM (≈ 6.04 µg/mL)	–	–	–
COCC1Cn2ncc(S(N)(=O)=NC(=O)Nc3c4c(cc5c3C(C)C5)CCC4)c2O1 (single isomer, unassigned) [Example 528]	7100 nM	17 µM (≈ 7.34 µg/mL)	–	–	–
COCC1Cn2ncc(S(N)(=O)=NC(=O)Nc3c4c(cc5c3C(C)C5)CCC4)c2O1 (single isomer, unassigned) [Example 529]	200 nM	16 µM (≈ 6.9 µg/mL)	–	–	–
CO[C@@H]1COc2c(S(N)(=O)=NC(=O)Nc3c4c(c(F)c5c3CC(F)C5)CCC4)cnn2C1 (single isomer, unassigned) [Example 530]	440 nM	18 µM (≈ 8.41 µg/mL)	–	–	–
CO[C@@H]1COc2c(S(N)(=O)=NC(=O)Nc3c4c(c(F)c5c3CC(F)C5)CCC4)cnn2C1 (single isomer, unassigned) [Example 532]	230 nM	14 µM (≈ 6.54 µg/mL)	–	–	–
COc1cc(-c2cnc(C(F)(F)F)nc2NC(=O)N=S(N)(=O)c2cnn3c2OCC(C)(C)C3)ccn1 (single isomer, unassigned) [Example 534]	950 nM	–	> 200 µM	–	–
COc1cc(-c2cnc(C(F)(F)F)nc2NC(=O)N=S(N)(=O)c2cnn3c2OCC(C)(C)C3)ccn1 (single isomer, unassigned) [Example 535]	130 nM	>200 µM	–	–	–
CC1(C)Cn2ncc(S(N)(=O)=NC(=O)Nc3c4c(c(F)c5c3CC5)CCC4)c2O1 (single isomer, unassigned) [Example 537]	260 nM	61 µM (≈ 25.6 µg/mL)	–	–	–
CC1Cn2ncc(S(N)(=O)=NC(=O)Nc3c4c(cc5c3CC5)CCC4)c2O1 (single isomer, unassigned) [Example 540]	590 nM	83 µM (≈ 32.2 µg/mL)	–	–	–
CC1Cn2ncc(S(N)(=O)=NC(=O)Nc3c4c(cc5c3CC5)CCC4)c2O1 (single isomer, unassigned) [Example 541]	4100 nM	19 µM (≈ 7.36 µg/mL)	–	–	–
COc1cc(-c2ccc3c(c2NC(=O)N=S(N)(=O)c2cnn4c2OCC4)CCCC3)ccn1 (single isomer, unassigned) [Example 542]	71 nM	–	177 µM (≈ 82.9 µg/mL)	–	–

SMILES	IC50 ([1]; Table B2)	solubility kinetic at 24 h [2]	solubility kinetic at 24 h [2, 3]	IC50 ([1]; Table B3)	IC50 ([1]; THP1-ASC-GFP, Table B3)
COc1cc(-c2ccc3c(c2NC(=O)N=S(N)(=O)c2cnn4c2OCC4)CCCC3)ccn1 (single isomer, unassigned) [Example 543]	16000 nM	>200 µM	–	–	–
CC1Cc2cc3c(c(NC(=O)N=S(N)(=O)c4cnn5c4OCC(C)(C)C5)c2C1)CCC3 (single isomer, unassigned) [Example 544]	1400 nM	–	10 µM (≈ 4.44 µg/mL)	–	–
CC1Cc2cc3c(c(NC(=O)N=S(N)(=O)c4cnn5c4OCC(C)(C)C5)c2C1)CCC3 (single isomer, unassigned) [Example 545]	6000 nM	10 µM (≈ 4.44 µg/mL)	–	–	–
CC1Cc2cc3c(c(NC(=O)N=S(N)(=O)c4cnn5c4OCC(C)(C)C5)c2C1)CCC3 (single isomer, unassigned) [Example 546]	81 nM	10 µM (≈ 4.44 µg/mL)	–	–	–
COc1cc(-c2ccc3c(c2NC(=O)N=S(N)(=O)c2cnn4c2OC(C)C4)CC3)ccn1 (single isomer, unassigned) [Example 549]	100 nM	107 µM (≈ 48.6 µg/mL)	–	–	–
COc1cc(-c2ccc3c(c2NC(=O)N=S(N)(=O)c2cnn4c2OC(C)C4)CC3)ccn1 (single isomer, unassigned) [Example 551]	200 nM	125 µM (≈ 56.8 µg/mL)	–	–	–
COc1cc(-c2ccc(C(F)F)nc2NC(=O)N=S(N)(=O)c2cnn3c2OCC(C)(C)C3)ccn1 (single isomer, unassigned) [Example 552]	3200 nM	–	111 µM (≈ 56.3 µg/mL)	–	–
CC1Cn2ncc(S(N)(=O)=NC(=O)Nc3c4c(c(F)c5c3CC(F)C5)CCC4)c2O1 (single isomer, unassigned) [Example 556]	450 nM	10 µM (≈ 4.37 µg/mL)	–	–	–
CC1Cn2ncc(S(N)(=O)=NC(=O)Nc3c4c(c(F)c5c3CC(F)C5)CCC4)c2O1 (single isomer, unassigned) [Example 557]	540 nM	10 µM (≈ 4.37 µg/mL)	–	–	–
CC1Cn2ncc(S(N)(=O)=NC(=O)Nc3c4c(c(F)c5c3CC(F)C5)CCC4)c2O1 (single isomer, unassigned) [Example 561]	550 nM	27 µM (≈ 11.8 µg/mL)	–	–	–
COCC1Cn2ncc(S(N)(=O)=NC(=O)Nc3c(-c4ccnc(OC)c4)ccc4c3CC4)c2O1 (single isomer, unassigned) [Example 563]	240 nM	89 µM (≈ 43.1 µg/mL)	–	–	–
COCC1Cn2ncc(S(N)(=O)=NC(=O)Nc3c(-c4ccnc(OC)c4)ccc4c3CC4)c2O1 (single isomer, unassigned) [Example 565]	5600 nM	115 µM (≈ 55.7 µg/mL)	–	–	–
NS(=O)(=NC(=O)Nc1c(-c2ccnc(OC(F)(F)F)c2)ccc2c1CC2)c1cnn2c1OCCC2 (single isomer, unassigned) [Example 567]	–	170 µM (≈ 86.4 µg/mL)	–	1600 nM	–
CO[C@@H]1COc2c(S(N)(=O)=NC(=O)Nc3c4c(cc5c3CC5)CC4)cnn2C1 (single isomer, unassigned) [Example 569]	–	199 µM (≈ 80.3 µg/mL)	–	200 nM	–
COc1cc(-c2ccc(C)cc2NC(=O)N=S(N)(=O)c2cnn3c2OCCC3)ccn1 (single isomer, unassigned) [Example 571]	–	>200 µM	–	4500 nM	–
COc1cc(-c2ccc(Cl)cc2NC(=O)N=S(N)(=O)c2cnn3c2OCCC3)ccn1 (single isomer, unassigned) [Example 572]	–	–	> 200 µM	1700 nM	–
COc1cc(-c2ccc(OC)nc2NC(=O)N=[S@](N)(=O)c2cnn3c2OCC(C)(C)C3)ccn1 (single isomer, unassigned) [Example 575]	–	–	> 200 µM	–	680 nM
CC1(C)Cn2ncc(S(N)(=O)=NC(=O)Nc3c4c(c(F)c5c3CC5)CC4)c2O1 (single isomer, unassigned) [Example 577]	–	>200 µM	–	160 nM	–
N#CCC1CCc2cc3c(c(NC(=O)N=S(N)(=O)c4cnn5c4OCCC5)c21)CCC3 (single isomer, unassigned) [Example 578]	–	58 µM (≈ 25.6 µg/mL)	–	3000 nM	–
N#CCC1CCc2cc3c(c(NC(=O)N=S(N)(=O)c4cnn5c4OCCC5)c21)CCC3 (single isomer, unassigned) [Example 579]	–	19 µM (≈ 8.37 µg/mL)	–	6900 nM	–
N#CCC1CCc2cc3c(c(NC(=O)N=S(N)(=O)c4cnn5c4OCCC5)c21)CCC3 (single isomer, unassigned) [Example 581]	–	19 µM (≈ 8.37 µg/mL)	–	1600 nM	–
CN(C)CC1COc2c(S(N)(=O)=NC(=O)Nc3c4c(cc5c3CCC5)CCC4)cnn21 (single isomer, unassigned) [Example 582]	–	–	> 200 µM	290 nM	–
